Measured values taken from ChEMBL document CHEMBL1155090, “Novel alkoxybenzamide inhibitors of poly(ADP-ribose) polymerase” (Bioorg Med Chem Lett, 2008).

What follows are molecules tested against Poly [ADP-ribose] polymerase 1 (Homo sapiens, UniProt P09874) (assay: Inhibition of PARP1).
Poly [ADP-ribose] polymerase 1, sequence (P09874 whole entry): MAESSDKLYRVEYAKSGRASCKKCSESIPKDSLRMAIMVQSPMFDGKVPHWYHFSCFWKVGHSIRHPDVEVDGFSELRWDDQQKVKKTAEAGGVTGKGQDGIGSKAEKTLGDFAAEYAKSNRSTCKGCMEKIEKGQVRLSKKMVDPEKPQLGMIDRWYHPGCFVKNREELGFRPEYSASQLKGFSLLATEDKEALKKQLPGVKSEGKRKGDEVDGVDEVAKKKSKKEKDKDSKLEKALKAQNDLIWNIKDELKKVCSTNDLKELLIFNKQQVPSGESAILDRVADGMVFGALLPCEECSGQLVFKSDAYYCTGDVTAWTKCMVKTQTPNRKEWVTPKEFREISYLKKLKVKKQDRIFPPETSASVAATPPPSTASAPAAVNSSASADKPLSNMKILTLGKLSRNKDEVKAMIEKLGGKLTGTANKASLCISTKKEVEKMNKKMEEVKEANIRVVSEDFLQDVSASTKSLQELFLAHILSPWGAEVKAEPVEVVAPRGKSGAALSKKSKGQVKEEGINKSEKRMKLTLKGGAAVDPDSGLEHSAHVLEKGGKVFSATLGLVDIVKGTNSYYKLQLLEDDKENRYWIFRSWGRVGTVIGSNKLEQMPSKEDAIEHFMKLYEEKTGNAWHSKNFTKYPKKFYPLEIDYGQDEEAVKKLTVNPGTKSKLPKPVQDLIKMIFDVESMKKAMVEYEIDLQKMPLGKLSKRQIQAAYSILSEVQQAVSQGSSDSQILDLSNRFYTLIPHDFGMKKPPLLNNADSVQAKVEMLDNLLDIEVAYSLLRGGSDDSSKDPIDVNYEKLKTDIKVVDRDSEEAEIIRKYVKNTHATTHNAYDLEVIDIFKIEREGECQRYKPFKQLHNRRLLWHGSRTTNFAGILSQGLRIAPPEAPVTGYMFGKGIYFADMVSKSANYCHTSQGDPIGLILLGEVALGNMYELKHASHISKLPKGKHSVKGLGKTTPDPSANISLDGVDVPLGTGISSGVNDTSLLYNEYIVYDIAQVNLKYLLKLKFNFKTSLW
`O=C(c1cccc(Cc2n[nH]c(=O)c3ccccc23)c1)N1CCNCC1` gave an IC50 of 2 nM.
With `NC(=O)c1ccccc1OCc1ccc(F)c(C(=O)N2CCNCC2)c1` the IC50 was 61 nM.
`NC(=O)c1cc(F)ccc1OCc1ccc(F)c(C(=O)N2CCNCC2)c1` was tested, and the IC50 was 29 nM.
`NC(=O)c1cc(F)c(F)cc1OCc1ccc(F)c(C(=O)N2CCNCC2)c1` showed an IC50 of 240 nM.
With `NC(=O)c1c(F)ccc(F)c1OCc1ccc(F)c(C(=O)N2CCNCC2)c1` the IC50 was > 10000 nM.
In the case of `CC(Oc1ccccc1)C(=O)N1CCN(C(=O)c2cc(COc3ccc(F)cc3C(N)=O)ccc2F)CC1` (stereo unspecified), the IC50 is reported as 14 nM.
With `NC(=O)c1cc(F)cc(F)c1OCc1ccc(F)c(C(=O)N2CCNCC2)c1` the IC50 was 1500 nM.
For `NC(=O)c1ccccc1OCc1ccc(F)c(C(=O)N2CCN(C(=O)C3CCCC3)CC2)c1`, the IC50 was 24 nM.
In the case of `CC(Oc1ccccc1)C(=O)N1CCN(C(=O)c2cccc(Cc3n[nH]c(=O)c4ccccc34)c2)CC1` (stereo unspecified), the IC50 is reported as 5 nM.
`NC(=O)c1ccccc1OCc1cccc(C(=O)N2CCNCC2)c1` was tested, and the IC50 was 18 nM.
`CC(Oc1ccccc1)C(=O)N1CCN(C(=O)c2cc(COc3ccccc3C(N)=O)ccc2F)CC1` (stereo unspecified) gave an IC50 of 50 nM.
`NC(=O)c1ccccc1OCCc1cccc(C(=O)N2CCNCC2)c1` showed an IC50 of 970 nM.
Work on `NC(=O)c1ccccc1OCc1cccc(C(=O)N2CCN(C(=O)C3CCCC3)CC2)c1` yielded an IC50 of 188 nM.
`NC(=O)c1ccccc1OCCc1cccc(C(=O)N2CCN(C(=O)C3CCCC3)CC2)c1` gave an IC50 of 200 nM.
Work on `O=C(c1cccc(Cc2n[nH]c(=O)c3ccccc23)c1)N1CCN(C(=O)C2CCCC2)CC1` yielded an IC50 of 8 nM.
For `NC(=O)c1ccc(F)cc1OCc1ccc(F)c(C(=O)N2CCNCC2)c1`, the IC50 was 250 nM.
In the case of `NC(=O)c1ccccc1OCCc1ccc(F)c(C(=O)N2CCNCC2)c1`, the IC50 is reported as > 10000 nM.
Molecule `CC(Oc1ccccc1)C(=O)N1CCN(C(=O)c2cccc(COc3ccccc3C(N)=O)c2)CC1` (stereo unspecified) has an IC50 of 36 nM.
In the case of `CC(Oc1ccccc1)C(=O)N1CCN(C(=O)c2cccc(CCOc3ccccc3C(N)=O)c2)CC1` (stereo unspecified), the IC50 is reported as 200 nM.

What follows are molecules tested on HeLa (assay: Ratio of GI50 for methyl methane sulphonate to drug in human HeLa B cells).
Format: functional
With `O=C(c1cccc(Cc2n[nH]c(=O)c3ccccc23)c1)N1CCNCC1` the PF50 was 2.7.
`NC(=O)c1ccccc1OCc1ccc(F)c(C(=O)N2CCNCC2)c1` gave a PF50 of 1.4.
`NC(=O)c1cc(F)ccc1OCc1ccc(F)c(C(=O)N2CCNCC2)c1` was tested, and the PF50 was 1.6.
In the case of `NC(=O)c1cc(F)c(F)cc1OCc1ccc(F)c(C(=O)N2CCNCC2)c1`, the PF50 is reported as 1.08.
For `CC(Oc1ccccc1)C(=O)N1CCN(C(=O)c2cc(CCOc3ccccc3C(N)=O)ccc2F)CC1` (stereo unspecified), the PF50 was 1.5.
In the case of `CC(Oc1ccccc1)C(=O)N1CCN(C(=O)c2cc(COc3ccc(F)cc3C(N)=O)ccc2F)CC1` (stereo unspecified), the PF50 is reported as 1.12.
For `NC(=O)c1cc(F)cc(F)c1OCc1ccc(F)c(C(=O)N2CCNCC2)c1`, the PF50 was 0.9.
Work on `NC(=O)c1ccccc1OCc1ccc(F)c(C(=O)N2CCN(C(=O)C3CCCC3)CC2)c1` yielded a PF50 of 1.96.
Work on `CC(Oc1ccccc1)C(=O)N1CCN(C(=O)c2cccc(Cc3n[nH]c(=O)c4ccccc34)c2)CC1` (stereo unspecified) yielded a PF50 of 29.7.
In the case of `NC(=O)c1ccccc1OCc1cccc(C(=O)N2CCNCC2)c1`, the PF50 is reported as 1.3.
Work on `CC(Oc1ccccc1)C(=O)N1CCN(C(=O)c2cc(COc3ccccc3C(N)=O)ccc2F)CC1` (stereo unspecified) yielded a PF50 of 3.7.
In the case of `NC(=O)c1ccccc1OCCc1cccc(C(=O)N2CCNCC2)c1`, the PF50 is reported as 1.06.
`NC(=O)c1ccccc1OCc1cccc(C(=O)N2CCN(C(=O)C3CCCC3)CC2)c1` was tested, and the PF50 was 1.1.
Molecule `O=C(c1cccc(Cc2n[nH]c(=O)c3ccccc23)c1)N1CCN(C(=O)C2CCCC2)CC1` has a PF50 of 4.8.
`NC(=O)c1ccc(F)cc1OCc1ccc(F)c(C(=O)N2CCNCC2)c1` was tested, and the PF50 was 1.2.
Molecule `NC(=O)c1cc(F)ccc1OCc1ccc(F)c(C(=O)N2CCN(C(=O)C3CCCC3)CC2)c1` has a PF50 of 1.5.
For `CC(Oc1ccccc1)C(=O)N1CCN(C(=O)c2cccc(COc3ccccc3C(N)=O)c2)CC1` (stereo unspecified), the PF50 was 2.
